Results reported in patent US20090069324A1, “CHEMICAL INHIBITORS OF BFL-1 AND RELATED METHODS” (The Burnham Institute, priority 2007, published 2009).

Tests used:
Bfl-1 = molecular target: T1, Bfl-1 (Homo sapiens, UniProt Q16548); experiment: Bfl-1 fluorescence polarization assay (FPA/FP), competition with FITC-Bid BH3 peptide; format: binding; details: for Bfl-1 FP assay, activity in words: Bfl-1/FITC-Bid
T1 construct: lacking their C-terminal transmembrane domains (approximately last 20 amino-acids); made in house; host or cells: XL-1 Blue cells (E. coli), pGEX 4T-1
T1 sequence (Q16548 1-155 limits assumed): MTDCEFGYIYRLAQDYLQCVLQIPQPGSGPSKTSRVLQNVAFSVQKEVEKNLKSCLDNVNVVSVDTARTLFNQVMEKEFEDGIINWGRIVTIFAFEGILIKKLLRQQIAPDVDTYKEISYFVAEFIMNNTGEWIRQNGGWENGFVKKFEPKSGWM
Procedure: Fluorescence polarization assays (FPA). To determine the binding affinity of anti-apoptotic Bcl-2 polypeptides to FITC-conjugated Bid BH3 peptide, fluorescence polarization assays (FPAs) were performed according to published procedures (Zhai et al., Biochem. J. 376:229-236 (2003)). […] Fluorescence polarization was measured after 10 min using an Analyst™ AD Assay Detection System (LJL Biosystem, Sunnyvale, Calif.) in phosphate-buffered saline (PBS) (pH 7.4). The IC50 determinations were performed using GraphPad Prism software (GraphPad, Inc., San Diego, Calif.).
Competition assays. Using the same procedure outlined above, 100 nM of GST-Bfl-1 protein were incubated with the compounds at 50 μM concentration for 30 min. Then, 5 nM of FITC-Bid BH3 peptide was added. Fluorescence polarization was measured after 10 min. […]

Bcl-2 = molecular target: T2, Bcl-2 (Homo sapiens, UniProt P10415); experiment: Bcl-2/FITC-Bim FPA selectivity assay; format: binding; details: Bcl-2/FITC-Bim complex
T2 construct: lacking their C-terminal transmembrane domains (approximately last 20 amino-acids); GST (N); made in house; host or cells: XL-1 Blue cells (E. coli), pGEX 4T-1
From the text: This example illustrates assays for determining the selectivity of chemical inhibitors for Bfl-1. Bfl-1, as with other Bcl-2 family proteins, participates in a very complex and intricate network of interactions with other representatives of the family. Therefore, two selectivity assays involving family members Bcl-2 and Bcl-B were developed.
For Bcl-2, a FITC-conjugated peptide corresponding to the BH3 domain of Bim was used. For Bcl-B, a FITC-conjugated peptide corresponding to a fragment of the TR3/Nur77 protein shown to bind this member of the Bcl-2 family was used.
Probe specificity for target or for cell-based/phenotypic assays data can be determined in orthogonal cell-based assay systems that address the pathway of interest. For example, compounds were tested in Bfl-1/FITC-Bid FPA and TR-FRET assays (FIGS. 7A and 7B, respectively), as well as Bcl-2/FITC-Bim FPA (FIG. 7C) and Bcl-B/FITC-TR3-R8 FPA (FIG. 7D) assays. Data represent concentration in μM x-axis) vs % displacement (y-axis).

Microsomal stability = format: in vitro ADME; details: rat liver microsomes, 37.5° C.
Procedure: (§1) CID-779754 (MLS-0067130) has a metabolic half life of >60 min in the presence of rat liver microsomes when incubated at 37.5° C. (FIG. 6A), with 64% of the compound remaining at 1 hour. The plasma stability of CID-779754 is also good, with 79% remaining after incubating at 37.5° C. for 1 hour in fresh rat plasma (FIG. 6B).

Plasma stability = format: in vitro ADME; details: fresh rat plasma, 37.5° C.
Procedure: as §1

Solubility = details: aqueous buffer
Procedure: Compounds were screened for inhibitory activity of Bfl-1 essentially as described in Example 1, and including a 1 h incubation of Bfl-1 in the presence of compounds and a 4 h incubation after the subsequent addition of the fluorescent probe. […] The assay was screened against the entire NIH small molecule library, which at the time consisted of 65,000 compounds. […] Controls included an “artifact” plate on which a GAPDH assay was performed to check selectivity, and a solubility plate on which a solubility assay was performed to test solubility.

[1] = system: cord blood derived human mast cells (CBMCs); experiment: LDH release cytotoxicity assay; format: cell-based
Procedure: To investigate whether a Bfl-1 inhibitor is cytotoxic to cord blood derived human mast cells (CBMCs), a […] assay based on the measurement of lactate dehydrogenase (LDH) activity is used. CBMC are cultured with various concentrations of the Bfl-1 inhibitor, and LDH release into the culture supernatant is measured. […] The positive control in FIG. 8 is a control included in the LDH kit. Thus, CID-779754 is not cytotoxic to in vitro developed human mast cells.

T2 sequence (P10415 1-218 limits assumed): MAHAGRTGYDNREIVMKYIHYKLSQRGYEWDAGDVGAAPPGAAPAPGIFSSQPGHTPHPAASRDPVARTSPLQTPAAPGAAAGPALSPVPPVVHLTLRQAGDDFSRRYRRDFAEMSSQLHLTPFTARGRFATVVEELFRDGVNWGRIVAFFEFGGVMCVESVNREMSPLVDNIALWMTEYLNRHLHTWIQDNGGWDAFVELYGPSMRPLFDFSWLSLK

SMILES: CN(C)C1=C(Cl)C(=O)N(c2ccc(Cl)c(Cl)c2)C1=O [CID-779754, 3-chloro-1-(3,4-dichlorophenyl)-4-(dimethylamino)-1H-pyrrole-2,5-dione]
- Bfl-1 FP assay, activity in words (Bfl-1): binds reversibly and competes
- Bfl-1 FP assay, activity in words (Bfl-1; listed as MLS-0067130): equipotent with CID-1180676
- IC50 (Bfl-1; Bfl-1 FP IC50 (uM), Tables 3-5): 0.46 µM
- Competition for binding of a BH3 peptide to Bcl-2, in words (Bcl-2): weak activity
- compound remaining at 1 hour (Microsomal stability): 64%
- half-life (Microsomal stability; read-out: metabolic half life): > 1 h
- remaining after incubating for 1 hour (Plasma stability): 79%
- solubility (Solubility): ≤ 100 µM
- cytotoxicity (LDH release) ([1]; 0.1-100 μM, n=4 donors): no cytoxicity
- toxicity to normal human cells ([1]; normal human cells): not toxic to normal human cells
